Data taken from publication PMC8050276, “Estradiol analogs attenuate autophagy, cell migration and invasion by direct and selective inhibition of TRPML1, independent of estrogen receptors” (Scientific Reports, 2021).
Entries after “also recorded” stand apart in the source; their conditions may differ. Like-named read-outs stand apart in the source and are kept apart here.

What was measured:
TRPML1 = biological target: T1, TRPML1 (Mus musculus, UniProt Q99J21); experiment: Endolysosomal patch-clamp, murine alveolar macrophages endogenously expressing TRPML1; assay type: cell-based; conditions: EDME 10 µM, ML-SA1 10 µM
T1 construct: TRPML1 endogenously expressed in mouse alveolar macrophages; endogenous in cells; host or cells: primary murine alveolar macrophages
T1 sequence (Q99J21 whole entry): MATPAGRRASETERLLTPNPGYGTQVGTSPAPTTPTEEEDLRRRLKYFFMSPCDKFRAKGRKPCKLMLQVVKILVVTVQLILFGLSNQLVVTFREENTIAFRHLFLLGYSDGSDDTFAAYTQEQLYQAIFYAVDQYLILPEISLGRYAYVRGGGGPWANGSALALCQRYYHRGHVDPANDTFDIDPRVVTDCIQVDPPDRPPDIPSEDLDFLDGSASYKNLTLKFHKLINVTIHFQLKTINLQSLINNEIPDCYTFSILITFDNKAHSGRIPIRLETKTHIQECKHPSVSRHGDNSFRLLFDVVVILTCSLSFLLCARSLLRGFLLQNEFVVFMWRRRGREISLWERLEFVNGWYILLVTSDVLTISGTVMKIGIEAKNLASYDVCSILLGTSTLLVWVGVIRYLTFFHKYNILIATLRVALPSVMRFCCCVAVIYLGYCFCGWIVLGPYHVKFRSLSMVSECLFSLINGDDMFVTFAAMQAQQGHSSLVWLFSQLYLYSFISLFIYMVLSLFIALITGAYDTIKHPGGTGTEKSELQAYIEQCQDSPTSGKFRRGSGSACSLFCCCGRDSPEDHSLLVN
Method: For whole-LE/LY manual patch-clamp recordings, cells were treated with 1 μM vacuolin-1 (> 2 h) at 37 °C and 5% CO2 and experiments performed as described previously[19],[25]. Compound was washed out before patch-clamp experimentation. Currents were recorded using an EPC-10 patch-clamp amplifier (HEKA, Lambrecht, Germany) and PatchMaster acquisition software (https://www.heka.com/). Data were digitized at 40 kHz and filtered at 2.8 kHz. Fast and slow capacitive transients were cancelled by the compensation circuit of the EPC-10 amplifier. All recordings were obtained at room temperature and were analyzed using PatchMaster acquisition software (https://www.heka.com/) and OriginPro 6.1 (https://www.originlab.com/). […] For all experiments, salt-agar bridges were used to connect the reference Ag–AgCl wire to the bath solution to minimize voltage offsets. Liquid junction potential was corrected. For the application of the small molecule inhibitors/flavonoids, cytoplasmic solution was completely exchanged by cytoplasmic solution containing compound. The current amplitudes at − 100 mV were extracted from individual ramp current recordings. Unless otherwise stated, cytoplasmic solution contained 140 mM K-MSA, 5 mM KOH, 4 mM NaCl, 0.39 mM CaCl2, 1 mM EGTA and 10 mM HEPES (pH was adjusted with KOH to 7.2). […]

hTRPML1∆NC-YFP [1] = biological target: hTRPML1∆NC-YFP (Homo sapiens, UniProt Q9GZU1); assay type: cell-based
Sequence of hTRPML1∆NC-YFP (Homo sapiens, UniProt Q9GZU1) (Q9GZU1 whole entry): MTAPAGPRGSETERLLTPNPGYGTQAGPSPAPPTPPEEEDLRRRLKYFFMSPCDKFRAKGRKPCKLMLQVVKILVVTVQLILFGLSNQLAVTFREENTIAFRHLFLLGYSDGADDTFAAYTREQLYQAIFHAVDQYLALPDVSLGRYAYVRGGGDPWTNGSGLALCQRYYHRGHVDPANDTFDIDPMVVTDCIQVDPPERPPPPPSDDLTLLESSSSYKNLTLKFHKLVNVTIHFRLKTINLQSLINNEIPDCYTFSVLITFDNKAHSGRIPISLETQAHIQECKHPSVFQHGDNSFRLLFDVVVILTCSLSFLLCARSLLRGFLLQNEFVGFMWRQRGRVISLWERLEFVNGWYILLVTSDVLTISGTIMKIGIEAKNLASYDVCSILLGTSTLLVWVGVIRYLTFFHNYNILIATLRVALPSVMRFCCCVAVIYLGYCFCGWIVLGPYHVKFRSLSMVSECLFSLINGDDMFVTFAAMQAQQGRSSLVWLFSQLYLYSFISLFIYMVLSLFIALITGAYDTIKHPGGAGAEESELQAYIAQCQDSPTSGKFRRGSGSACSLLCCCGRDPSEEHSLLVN
Method: (§1) To identify inhibitors of TRPML1 and TRPML3, the Spectrum Collection compound library (MS Discoveries; 2000 compounds) and additional 430 bioactive compounds were screened. To this end, fluorometric Ca^2+ influx assays were performed by using the calcium dye Fluo-4/AM (Invitrogen, Thermo Fisher Scientific, Waltham, MA, USA) and a custom-made fluorescence imaging plate reader built into a robotic liquid handling station (Freedom Evo 150, Tecan, Männedorf, Switzerland). […] Screening compounds dissolved in DMSO (10 mM) were prediluted in 150 mM NaCl, 20 mM HEPES, pH 7.4, to a concentration of 200 µM. For primary screens, HEK293 stably expressing plasma membrane-targeted TRPML1 or TRPML3 were trypsinized and resuspended in cell culture medium supplemented with 4 µM Fluo-4/AM. After incubation at 37 °C for 30 min, the cell suspension was briefly centrifuged resuspended in HBS, and dispensed into black pigmented, clear-bottom 384-well microwell plates (Greiner μClear, Frickenhausen, Germany). Plates were placed into the FLIPR and fluorescence signals (excitation 470 nm, emission 515 nm) were recorded with a Zyla 5.5 camera (Andor, Belfast, UK) and the μManager software like previously described. In a first video, compound libraries were successively added to the cells with the Tecan 96-tip multichannel arm to a final concentration of 20 µM to map unspecific effects like autofluorescence or toxicity. In a second step the agonist ML-SA1 was pipetted in each well and fluorescence signals were recorded for 10 min. Analyses were done by calculating fluorescence intensities for each well and background areas with ImageJ (National Institutes of Health, Bethesda, MD, USA). Finally, the background was subtracted and the fluorescence intensities were normalized to initial intensities (F/F0). Concentration response curves were generated by the same procedure but compounds were manually prediluted in 96-well plates containing HBS, now supplemented with 0.1% bovine serum albumin. Here data was fitted to a four-parameter Hill equation to obtain Imin, Imax, IC50), and the Hill coefficient n.

hTRPML1∆NC-YFP [2] = assay type: cell-based, human; conditions: for TRPML1:TRPML2 fold selectivity / TRPML1:TRPML3 fold selectivity: ratio of Fluo-4 IC50 values; for TRPML isoform selectivity profile: TRPML1, 2, 3 and TPC2, Fluo-4
Method: as §1

hTPC2L11A/L12A-RFP = biological target: T2, hTPC2L11A/L12A-RFP (Homo sapiens, UniProt Q8NHX9, L11A/L12A); experiment: Single cell Fura-2 calcium imaging, HEK293 stably expressing hTPC2L11A/L12A-RFP; assay type: cell-based; conditions: compound alone or 10 µM after TPC2-A1-N (10 µM)
T2 construct: expressed in transfected cells
T2 sequence (Q8NHX9 whole entry L11A/L12A): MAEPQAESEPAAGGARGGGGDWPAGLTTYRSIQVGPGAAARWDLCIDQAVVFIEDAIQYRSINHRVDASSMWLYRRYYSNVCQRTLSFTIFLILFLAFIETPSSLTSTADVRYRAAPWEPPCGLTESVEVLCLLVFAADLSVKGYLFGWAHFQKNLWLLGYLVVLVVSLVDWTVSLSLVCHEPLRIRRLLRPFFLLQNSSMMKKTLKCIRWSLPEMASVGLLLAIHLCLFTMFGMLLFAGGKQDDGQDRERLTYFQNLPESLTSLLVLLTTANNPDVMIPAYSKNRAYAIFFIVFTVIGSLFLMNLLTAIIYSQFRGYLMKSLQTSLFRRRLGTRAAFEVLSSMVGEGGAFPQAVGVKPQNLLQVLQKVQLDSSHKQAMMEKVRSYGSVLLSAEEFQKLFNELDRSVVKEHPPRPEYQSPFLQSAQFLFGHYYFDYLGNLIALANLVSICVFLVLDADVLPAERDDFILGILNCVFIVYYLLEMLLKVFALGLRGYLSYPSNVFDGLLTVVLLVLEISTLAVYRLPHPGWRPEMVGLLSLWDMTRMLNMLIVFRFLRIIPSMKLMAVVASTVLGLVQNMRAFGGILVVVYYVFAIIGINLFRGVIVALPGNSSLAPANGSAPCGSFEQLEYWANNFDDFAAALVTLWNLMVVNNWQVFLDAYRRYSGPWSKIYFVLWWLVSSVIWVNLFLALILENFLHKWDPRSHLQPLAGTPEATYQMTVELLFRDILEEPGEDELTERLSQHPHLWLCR
Method: Single cell Ca^2+ imaging experiments were performed using Fura-2 as previously described. HEK293 cells stably expressing hTRPML1∆NC-YFP, hTRPML2-YFP, hTPPML3-YFP or hTPC2L11A/L12A-RFP (22, 24) were cultured at 37 °C with 5% of CO2 in Dulbecco’s modified Eagle medium (Thermo Fisher), supplemented with 10% fetal bovine serum, 100 U/mL penicillin, and 0.1 mg/mL streptomycin. Cells were plated onto poly-L-lysine (sigma)-coated glass coverslips and grown for 2–3 days. For Ca^2+ imaging experiments cells were loaded for 1 h at room temperature with Fura-2 AM (4.0 µM) and 0.005% (v/v) pluronic acid (both from Thermo Fisher) in HEPES-buffered solution (HBS) comprising 138 mM NaCl, 6 mM KCl, 2 mM MgCl2, 2 mM CaCl2, 10 mM HEPES, and 5.5 mM D-glucose (adjusted to pH 7.4 with NaOH). After loading, cells were washed with HBS and mounted in an imaging chamber. All recordings were performed in HBS. Ca^2+ imaging was performed using a Leica DMi8 live cell microscope. Fura-2 was excited at 340 nm/380 nm. Emitted fluorescence was captured using 515 nm long-pass filter. Compounds were pre diluted in DMSO and stored as 10 mM stock solutions at − 20 °C, not exceeding three months. Working solutions were prepared directly before using by dilution with HBS.

[3] = read-out: TRPML1 IC50, Fluo-4, 5 µM ML-SA1, Fig. 2a/4, Table S1

Row | SMILES | inhibition of endogenous TRPML1 in alveolar macrophages (TRPML1) | inhibitory effect on TRPML1 (hTRPML1∆NC-YFP [1]; 12.5 µM compound, 5 µM ML-SA1, Fig. 1f) | IC50 (hTRPML1∆NC-YFP [1]; read-out: TRPML1 IC50, concentration-response retest of screening hits and steroids, Fluo-4, 5 µM ML-SA1, Fig. 1b-e, S1) [nM] | primary screen result (hTRPML1∆NC-YFP [2]; 20 µM compound, 5 µM ML-SA1, TRPML1 and TRPML3) | TRPML1 versus TRPML3 selectivity (hTRPML1∆NC-YFP [2]; Fluo-4, TRPML1 vs TRPML3, 5 µM ML-SA1) | TRPML1:TRPML2 fold selectivity (hTRPML1∆NC-YFP [2]) [fold] | TRPML1:TRPML3 fold selectivity (hTRPML1∆NC-YFP [2]) [fold] | effect on hTPC2, Fura-2 (hTPC2L11A/L12A-RFP) | IC50 (hTRPML1∆NC-YFP [1]; [3]) [nM] | TRPML isoform selectivity profile (hTRPML1∆NC-YFP [2])
1 | COc1ccc2c(c1)CC[C@@H]1[C@@H]2CC[C@]2(C)[C@@H](O)CC[C@@H]12 [EDME, 17β-estradiol methyl ether] | inhibition of TRPML1 activation | completely blocks TRPML1 | 500 | TRPML1 selective hit | highly TRPML1-selective | 9.14 | 30.47 |  |  | 
2 | C=Cc1ccc2c(c1)CC[C@@H]1[C@@H]2CC[C@]2(C)[C@@H](O)CC[C@@H]12 [PRU-10] |  |  |  |  |  | 13.17 | 38.61 | Neither an activating nor a blocking effect | 410 | further improved selectivity profile compared to EDME; also recorded: good TRPML isoform selectivity profile
3 | CC(=O)c1ccc2c(c1)CC[C@@H]1[C@@H]2CC[C@]2(C)[C@@H](O)CC[C@@H]12 [PRU-12] |  |  |  |  |  | 18.86 | 50.29 | Neither an activating nor a blocking effect | 280 | further improved selectivity profile compared to EDME; also recorded: good TRPML isoform selectivity profile
